In ChEMBL document CHEMBL1151679, “A new cytotoxic sterol methoxymethyl ether from a deep water marine sponge Scleritoderma sp. cf. paccardi” (J Nat Prod, 1996) one finds IC50 data, which are given here for one compound.

In this test the test system is P388. Briefly: Cytotoxicity against mouse P388 cells. Type of test: functional, cell-based.

Values after ≈ are worked out from the molar mass of the structure shown.

For `COCO[C@H]1CC[C@@]2(C)[C@@H](CC=C3[C@@H]2CC[C@]2(C)[C@@H]([C@H](C)CC[C@@H](C)C(C)C)CC[C@@H]32)C1`, half-maximal inhibition (IC50) was put at 2.3 µg/mL (≈ 5.17 µM).
